Consider 27 molecules from patent US20140275711A1, “1-(Arylmethyl)-5,6,7,8-tetrahydroquinazolline-2,4-diones and Analogs and the Use Thereof” (Impact Therapeutics, Inc., priority 2011, published 2014).

Structures are written as SMILES. Where two headings read alike, the source gives them in different places.

The subject of experiment [1] is SW620 human colorectal cancer cells. The experiment can be described thus: Potentiation of the growth inhibiting activity of MMS, MTT based cell viability assay. The settings on record: read-out: Compounds potentiate the growth inhibiting activity of MMS (IC50).
Method: The synergistic potentiation effect of PARP inhibitors on the growth inhibiting activity of DNA damaging anticancer drugs such as methyl methanesulphonate (MIMS) were measured with SW620 human colorectal cancer cells (Shanghai Cancer Institute) using a MTT based cell viability assay. SW620 cells were grown and maintained in RPMI1640 (Gibco) medium supplemented with 10% FBS (Hyclone). In the first day of experiment, 4000 cells were seeded to each well of a 96-well cell culture plate and incubated at 37° C. and 5% CO2 in a cell culture incubator overnight. In the next day, the cell culture medium was removed. […] The serial dilutions of the reference compounds and the compounds to be tested were made with a 1:3 and 1:10 fashion in DMSO. The 10-fold concentrated solutions of these compounds were made by mixing 10 μl of the serial dilutions in DMSO with 90 μl fresh medium. The final concentration of DMSO in the medium was 1%. The cells were incubated at 37° C. in 5% CO2 cell culture incubator for additional 5 days (120 hours). Afterwards, the 96-well cell culture plate was taken out and 20 μl of MTT solution was added to each well and incubated at 37° C. for 4 h. The medium was removed and 100 μl DMSO was added to each well. The 96-well cell culture plates were shaked adequately for 10 min and readed in a Varioskan Flash plate reader (Thermo Fisher Scientific) at 520 and 690 nm. The data were analyzed by Prism 5 software (GraphPad). The obtained 520 nm absorbance readings substracting corresponding 690 nm reading were analyzed and plotted against the Log scale of the compound concentrations.
Experiment [2] has as its system Human breast cancer cell line T47D. As to the kind of experiment: Potentiation of MMS induced apoptosis, cell based caspase-3 activity assay.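 Also: Caspase-3 activity in cell lysates measured by fluorescence (RFU), EC50 fitted from sigmoidal curve of signal versus log compound concentration in presence of MMS.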 The settings on record: read-out: Compounds potentiate the apoptosis inducing activity of MMS (EC50).
Method: Human breast cancer cell line T47D (Nanjing KeyGEN Biotech. CO., LTD.) was used to determine the potentiation effect of PARP-1 inhibitors on the apoptosis inducing activity of DNA damaging anticancer drugs such as MMS. Intracellular caspase-3 activity was used to measure cell apoptosis. Briefly, T47D cells were grown in DMEM/F12 cell culture medium (Hyclone) supplemented with 0.2 U/ml insulin (Genview) and 10% FBS (Hyclone). A day before experiment, 20000 of T47D cells were seeded to each well of a 96-well cell culture plate and maintained at 37° C. and 5% CO2 in a cell culture incubator overnight. On the day of experiment, cell culture medium was removed. […] The serial dilutions of the compounds to be tested and the reference compounds were made in a 1:3 and 1:10 fashion in DMSO. The 10-fold compound solutions were made by mixing 10 μl DMSO serial dilution solutions with 90 μl fresh growth medium. Twenty four hours later, the cells in the 96-well plates were centrifuged at 1000 g for 5 min and the supernatants were removed. 50 μl lysis buffer (10 mM Tris, pH 7.5, 0.1M NaCl, 1 mM EDTA, 0.01% Triton X-100) was added to each well and the plates were shaked horizontally for 30 min at 4° C. After centrifugation at 1000 g at 4° C. for 10 min, 20 μl of supernatant was transferred from each well to a corresponding well in a 384-well black plate. […] The plates were shaked to uniformly mix the wells and incubated at 37° C. for 3 h. […] The caspase-3 activity induced by the compounds was expressed as a relative fluorescence unit (RFU). The obtained fluorescence readings were analyzed using a commercial graphic software (GraphPad Prism 5) and plotted against the Log value of the compound concentrations. The EC50 values were obtained by fitting the data points with the equation of Y (fluorescence reading)=minimal fluorescence reading+(maximal fluorescence reading−minimal fluorescence reading)/(1+10̂(LogEC50−LogC)), where C is the concentration of the testing compound. The EC50 values were obtained by fitting the data points with S-shaped dose response curve equation (GraphPad Software, Inc).
Experiment [3] deals with BRCA-2 deficient CAPAN-1 human pancreatic cancer cells. The experiment can be described thus: Cell growth inhibition of BRCA-2 deficient CAPAN-1 cells, MTT based cell viability assay. The note with it: Homo sapiens, CAPAN-1, 240 h, read-out: Growth inhibition of CAPAN-1 cells by compounds (IC50).
Method: BRCA-2 deficient CAPAN-1 human pancreatic cancer cells were used to test the growth inhibiting activity of substituted 1-(arylmethyl)-5,6,7,8-tetrahydroquinazoline-2,4(1H,3H)-diones. Briefly, CAPAN-1 cells are grown and maintained in IMEM medium supplemented with 20% FBS. The assay takes 10 days to finish. On day 1, 6000 CAPAN-1 cells are seeded to each well of a 96-well plate. The cells are incubated at 37° C. in a CO2 cell culture incubator overnight. […] Ten-fold compound solutions were made by mixing 10 μl DMSO serial dilution solutions with 90 μl fresh growth medium. The cell culture medium was removed and 180 μl fresh media with FBS and 20 μl of compound solutions were added to each well. The final concentration of DMSO was 1%. Cells were then returned to the CO2 cell culture incubator and incubated at 37° C. for two days (day 3 and day 4). On day 5, the same procedure as what was done on day 2 was repeated. Cell culture medium was removed and fresh medium containing serial dilutions of compounds or reference compounds were added. Cells were returned to the CO2 cell culture incubator and incubated for two more days. On day 8, same procedure was repeated again and fresh medium containing the testing compounds or reference compounds were added and incubated for an additional 2 days. On day 10, 20 μl of MTT reagent (5 mg/ml) was added to each well of the cell culture plate and incubated for 4 h. The cell culture media was removed and 100 μl DMSO was added to each well. The 96-well cell culture plates were shaked horizontally for 10 min and readed in a Varioskan Flash plate reader (Thermo Fisher Scientific) at 520 and 690 nm. The obtained 520 nm absorbance readings substracting corresponding 690 nm reading were analyzed using a commercial graphic software (GraphPad Prism 5) and plotted against the Log scale of the compound concentrations.
Setting [4] is: SW620 cells, medium containing 1.5 μg/ml MMS, 5 days (120 hours), MTT.
Where [5] appears, read: T47D cells, 100 nM MMS, 24 hours, intracellular caspase-3 activity.

For the molecule `COc1ccc(C(=O)N2CCN(C(=O)c3cc(Cn4c5c(c(=O)[nH]c4=O)CCCC5)ccc3F)CC2)cc1` [Example 37, 1-(4-Fluoro-3-(4-(4-methoxybenzoyl)piperazine-1-carbonyl)benzyl)-5,6,7,8-tetrahydroquinazoline-2,4(1H,3H)-dione], in experiment [1] (Homo sapiens, SW-620, 120 h), the IC50 (usually the midpoint of a concentration-inhibition curve) amounted to 14 nM. In experiment [2] (Homo sapiens, T47D, 24 h), the EC50 – broadly, the concentration at which the effect is half-maximal – worked out at 48 nM.

`O=C(c1cc(Cn2c3c(c(=O)[nH]c2=O)CCCC3)ccc1F)N1CCN(C(=O)C2CC2)CC1` [Example 19, 1-(4-Fluoro-3-(4-(cyclopropylcarbonyl)piperazine-1-carbonyl)benzyl)-5,6,7,8-tetrahydroquinazoline-2,4(1H,3H)-dione]: the half-maximal inhibitory concentration (IC50) in experiment [1] (Homo sapiens, SW-620, 120 h) turned out to be 25 nM. Moreover, the half-maximal effective concentration (EC50) in experiment [2] (Homo sapiens, T47D, 24 h) turned out to be 324 nM.

On to `O=C(c1cccc(Cn2c3c(c(=O)[nH]c2=O)CCCC3)c1)N1CCN(C(=O)C2CCCC2)CC1` [Example 9, 1-(3-(4-(Cyclopentylcarbonyl)piperazine-1-carbonyl)benzyl)-5,6,7,8-tetrahydroquinazoline-2,4(1H,3H)-dione], for which the IC50 in experiment [1] (Homo sapiens, SW-620, 120 h) is 12 nM; in experiment [3] it was 107 nM. In addition, the EC50 in experiment [2] (Homo sapiens, T47D, 24 h) was found to be 91 nM.

In the case of `O=C(c1cccs1)N1CCN(C(=O)c2cc(Cn3c4c(c(=O)[nH]c3=O)CCCC4)ccc2F)CC1` [Example 21, 1-(4-Fluoro-3-(4-(thiophene-2-carbonyl)piperazine-1-carbonyl)benzyl)-5,6,7,8-tetrahydroquinazoline-2,4(1H,3H)-dione], the IC50 in experiment [1] (Homo sapiens, SW-620, 120 h) amounted to 1.3 nM; in experiment [3], 101 nM. In addition, the EC50 in experiment [2] (Homo sapiens, T47D, 24 h) was found to be 2.8 nM.

Take `O=C(c1cc(Cn2c3c(c(=O)[nH]c2=O)CCCC3)ccc1F)N1CCN(c2ccccn2)CC1` [Example 26, 1-(4-Fluoro-3-(4-(pyridin-2-yl)piperazine-1-carbonyl)benzyl)-5,6,7,8-tetrahydroquinazoline-2,4(1H,3H)-dione]: the half-maximal inhibitory concentration (IC50) in experiment [1] (Homo sapiens, SW-620, 120 h) was 2.3 nM; in experiment [3] it was 93 nM. Further, the EC50 in experiment [2] (Homo sapiens, T47D, 24 h) stood at 5.6 nM.

Regarding `O=C(c1ccc(Cn2c3c(c(=O)[nH]c2=O)CCCC3)cc1)N1CCN(c2ncccn2)CC1` [Example 55, 1-(4-(4-(Pyrimidin-2-yl)piperazine-1-carbonyl)benzyl)-5,6,7,8-tetrahydroquinazoline-2,4(1H,3H)-dione], the IC50 in experiment [1] (Homo sapiens, SW-620, 120 h) was above 10000 nM. Besides, the EC50 in experiment [2] (Homo sapiens, T47D, 24 h) was above 10000 nM.

With `O=C(c1cc(Cn2c3c(c(=O)[nH]c2=O)CCCC3)ccc1F)N1CCC(c2ccccc2)CC1` [Example 54, 1-(4-Fluoro-3-(4-phenylpiperidine-1-carbonyl)benzyl)-5,6,7,8-tetrahydroquinazoline-2,4(1H,3H)-dione], the IC50 in experiment [1] (Homo sapiens, SW-620, 120 h) is 107 nM. Further, the EC50 in experiment [2] (Homo sapiens, T47D, 24 h) turned out to be 532 nM.

Turning to `CC1CCCc2c1c(=O)[nH]c(=O)n2Cc1ccc(F)c(C(=O)N2CCN(c3ccccn3)CC2)c1` (stereo not drawn) [Example 58, 1-(4-Fluoro-3-(4-(pyridin-2-yl)piperazine-1-carbonyl)benzyl)-5-methyl-5,6,7,8-tetrahydroquinazoline-2,4(1H,3H)-dione], the IC50 in experiment [1] (setting [4]) turned out to be 82 nM. The EC50 in experiment [2] (setting [5]) stood at 350 nM.

Turning to `O=C(c1cc(Cn2c3c(c(=O)[nH]c2=O)CCCCC3)ccc1F)N1CCN(c2ncccn2)CC1` [Example 59, 1-(4-Fluoro-3-(4-(pyrimidin-2-yl)piperazine-1-carbonyl)benzyl)-6,7,8,9-tetrahydro-1H-cyclohepta[d]pyrimidine-2,4(3H,5H)-dione], in experiment [1] (Homo sapiens, SW-620, 120 h), the IC50 turned out to be 42 nM. In addition, the EC50 in experiment [2] (Homo sapiens, T47D, 24 h) came to 309 nM.

As to `O=C(c1ccc(F)c(Cn2c3c(c(=O)[nH]c2=O)CCCC3)c1)N1CCN(C(=O)c2ccco2)CC1` [Example 52, 1-(6-Fluoro-3-(4-(furan-2-carbonyl)piperazine-1-carbonyl)benzyl)-5,6,7,8-tetrahydroquinazoline-2,4(1H,3H)-dione], in experiment [1] (Homo sapiens, SW-620, 120 h), the IC50 stood at 16 nM. Also, in experiment [2] (Homo sapiens, T47D, 24 h), the EC50 stood at 24 nM.

Take `O=C(c1cccc(Cn2c3c(c(=O)[nH]c2=O)CCCC3)c1)N1CCN(C(=O)c2ccco2)CC1` [Example 13, 1-(3-(4-(Furan-2-carbonyl)piperazine-1-carbonyl)benzyl)-5,6,7,8-tetrahydroquinazoline-2,4(1H,3H)-dione]: the IC50 in experiment [1] (Homo sapiens, SW-620, 120 h) came to 33 nM. Besides, the EC50 in experiment [2] (Homo sapiens, T47D, 24 h) was 374 nM.

On to `O=C(c1ccc(F)cc1)N1CCN(C(=O)c2cc(Cn3c4c(c(=O)[nH]c3=O)CCCC4)ccc2F)CC1` [Example 32, 1-(4-Fluoro-3-(4-(4-fluorobenzoyl)piperazine-1-carbonyl)benzyl)-5,6,7,8-tetrahydroquinazoline-2,4(1H,3H)-dione], for which the IC50 in experiment [1] (Homo sapiens, SW-620, 120 h) stood at 6.3 nM. For the same molecule, the EC50 in experiment [2] (Homo sapiens, T47D, 24 h) worked out at 27 nM.

Turning to `CCN1CCN(C(=O)c2cc(Cn3c4c(c(=O)[nH]c3=O)CCCC4)ccc2F)CC1` [Example 31, 1-(4-Fluoro-3-(4-ethylpiperazine-1-carbonyl)benzyl)-5,6,7,8-tetrahydroquinazoline-2,4(1H,3H)-dione], in experiment [1] (Homo sapiens, SW-620, 120 h), the IC50 stood at 31 nM. Also, in experiment [2] (Homo sapiens, T47D, 24 h), the concentration giving a half-maximal response (EC50) was 295 nM.

Turning to `O=C(c1cccc(Cn2c3c(c(=O)[nH]c2=O)CCCC3)c1)N1CCN(c2nccs2)CC1` [Example 8, 1-(3-(4-(Thiazol-2-yl)piperazine-1-carbonyl)benzyl)-5,6,7,8-tetrahydroquinazoline-2,4(1H,3H)-dione], the IC50 in experiment [1] (Homo sapiens, SW-620, 120 h) worked out at 11 nM. Further, in experiment [2] (Homo sapiens, T47D, 24 h), the EC50 was determined as 20 nM.

On to `CC(=O)N1CCN(C(=O)c2cc(Cn3c4c(c(=O)[nH]c3=O)CCCC4)ccc2F)CC1` [Example 34, 1-(4-Fluoro-3-(4-acetylpiperazine-1-carbonyl)benzyl)-5,6,7,8-tetrahydroquinazoline-2,4(1H,3H)-dione], for which the IC50 in experiment [1] (Homo sapiens, SW-620, 120 h) was determined as 42 nM. The EC50 in experiment [2] (Homo sapiens, T47D, 24 h) amounted to 402 nM.

On to `O=C(c1cccc(Cn2c3c(c(=O)[nH]c2=O)CCCC3)c1)N1CCN(C(=O)C2CCCCC2)CC1` [Example 12, 1-(3-(4-(Cyclohexylcarbonyl)piperazine-1-carbonyl)benzyl)-5,6,7,8-tetrahydroquinazoline-2,4(1H,3H)-dione], for which the IC50 in experiment [1] (Homo sapiens, SW-620, 120 h) amounted to 9.7 nM. The EC50 in experiment [2] (Homo sapiens, T47D, 24 h) is 62 nM.

On to `CCS(=O)(=O)N1CCN(C(=O)c2cc(Cn3c4c(c(=O)[nH]c3=O)CCCC4)ccc2F)CC1` [Example 29, 1-(4-Fluoro-3-(4-ethylsulfonylpiperazine-1-carbonyl)benzyl)-5,6,7,8-tetrahydroquinazoline-2,4(1H,3H)-dione], for which the IC50 in experiment [1] (Homo sapiens, SW-620, 120 h) came to 18 nM. The EC50 in experiment [2] (Homo sapiens, T47D, 24 h) was determined as 138 nM.

With `O=C(c1cccc(Cn2c3c(c(=O)[nH]c2=O)CCC3)c1)N1CCN(c2ncccn2)CC1` [Example 45], the concentration for half-maximal inhibition (IC50) in experiment [1] (setting [4]) stood at 138 nM. For the same molecule, in experiment [2] (setting [5]), the EC50 worked out at 402 nM.

Consider `O=C(c1cccc(Cn2c3c(c(=O)[nH]c2=O)CCCC3)c1)N1CCN(C(=O)C2CCC2)CC1` [Example 14, 1-(3-(4-(Cyclobutylcarbonyl)piperazine-1-carbonyl)benzyl)-5,6,7,8-tetrahydroquinazoline-2,4(1H,3H)-dione], for which, in experiment [1] (Homo sapiens, SW-620, 120 h), the IC50 turned out to be 22 nM. The EC50 in experiment [2] (Homo sapiens, T47D, 24 h) came to 35 nM.

In the case of `CC1CCc2c(c(=O)[nH]c(=O)n2Cc2ccc(F)c(C(=O)N3CCN(c4ncccn4)CC3)c2)C1` (stereo not drawn) [Example 57, 1-(4-Fluoro-3-(4-(pyrimidin-2-yl)piperazine-1-carbonyl)benzyl)-6-methyl-5,6,7,8-tetrahydroquinazoline-2,4(1H,3H)-dione], the IC50 in experiment [1] (Homo sapiens, SW-620, 120 h) stood at 221 nM. Moreover, the EC50 in experiment [2] (Homo sapiens, T47D, 24 h) worked out at 429 nM.

Regarding `O=C(c1cccc(Cn2c3c(c(=O)[nH]c2=O)CCCC3)c1)N1CCN(C(=O)C2CC2)CC1` [Example 6, 1-(3-(4-(Cyclopropylcarbonyl)piperazine-1-carbonyl)benzyl)-5,6,7,8-tetrahydroquinazoline-2,4(1H,3H)-dione], the IC50 in experiment [1] (Homo sapiens, SW-620, 120 h) stood at 120 nM. For the same molecule, the EC50 in experiment [2] (Homo sapiens, T47D, 24 h) was above 1000 nM.

On to `O=C(c1ccsc1)N1CCN(C(=O)c2cccc(Cn3c4c(c(=O)[nH]c3=O)CCCC4)c2)CC1` [Example 15, 1-(3-(4-(Thiophene-3-carbonyl)piperazine-1-carbonyl)benzyl)-5,6,7,8-tetrahydroquinazoline-2,4(1H,3H)-dione], for which the IC50 in experiment [1] (Homo sapiens, SW-620, 120 h) worked out at 31 nM. In addition, the EC50 in experiment [2] (Homo sapiens, T47D, 24 h) is 72 nM.

Regarding `O=C(c1cccc(Cn2c3c(c(=O)[nH]c2=O)CCCC3)c1)N1CCN(c2cnccn2)CC1` [Example 16, 1-(3-(4-(Pyrazin-2-yl)piperazine-1-carbonyl)benzyl)-5,6,7,8-tetrahydroquinazoline-2,4(1H,3H)-dione], the IC50 in experiment [1] (Homo sapiens, SW-620, 120 h) came out at 13 nM. Also, in experiment [2] (Homo sapiens, T47D, 24 h), the EC50 was determined as 43 nM.

Take `O=C(c1ccccc1)N1CCN(C(=O)c2cccc(Cn3c4c(c(=O)[nH]c3=O)CCCC4)c2)CC1` [Example 10, 1-(3-(4-Benzoylpiperazine-1-carbonyl)benzyl)-5,6,7,8-tetrahydroquinazoline-2,4(1H,3H)-dione]: in experiment [1] (Homo sapiens, SW-620, 120 h), the IC50 stood at 36 nM. The EC50 in experiment [2] (Homo sapiens, T47D, 24 h) was found to be 325 nM.

For `O=C(c1ccccc1Cn1c2c(c(=O)[nH]c1=O)CCCC2)N1CCN(c2ncccn2)CC1` [Example 56, 1-(2-(4-(Pyrimidin-2-yl)piperazine-1-carbonyl)benzyl)-5,6,7,8-tetrahydroquinazoline-2,4(1H,3H)-dione], in experiment [1] (Homo sapiens, SW-620, 120 h), the IC50 was above 10000 nM. The EC50 in experiment [2] (Homo sapiens, T47D, 24 h) was above 10000 nM.

As to `O=C(c1ccccc1)N1CCN(C(=O)c2ccc(F)c(Cn3c4c(c(=O)[nH]c3=O)CCCC4)c2)CC1` [Example 48, 1-(6-Fluoro-3-(4-benzoylpiperazine-1-carbonyl)benzyl)-5,6,7,8-tetrahydroquinazoline-2,4(1H,3H)-dione], in experiment [1] (Homo sapiens, SW-620, 120 h), the IC50 is 13 nM. Besides, in experiment [2] (Homo sapiens, T47D, 24 h), the EC50 was found to be 26 nM.

Turning to `O=C(c1cccc(Cn2c3c(c(=O)[nH]c2=O)CCCC3)c1)N1CCN(C(=O)c2cccs2)CC1` [Example 7, 1-(3-(4-(Thiophene-2-carbonyl)piperazine-1-carbonyl)benzyl)-5,6,7,8-tetrahydroquinazoline-2,4(1H,3H)-dione], the IC50 in experiment [1] (Homo sapiens, SW-620, 120 h) was determined as 21 nM. In experiment [2] (Homo sapiens, T47D, 24 h), the concentration giving a half-maximal response (EC50) was 62 nM.
